Assay results: ChEMBL document CHEMBL1140009, “Synthesis, determination of stereochemistry, and evaluation of new bisindole alkaloids from the myxomycete Arcyria ferruginea: an approach for Wnt signal inhibitor” (Bioorg Med Chem Lett, 2007)

Test system: Cancer cell lines
Assay: Inhibition of Wnt signal in cancer cells by luciferase reporter gene assay
Assay type: cell-based
Settings: Homo sapiens

With `O=C1NC(=O)[C@@H](c2c[nH]c3cc(O)ccc23)[C@H]1c1c[nH]c2cc(O)ccc12` the Activity was “Dose-dependent effect”.

With `O=C1NC(=O)c2c1c1c3ccc(O)cc3[nH]c1c1[nH]c3cc(O)ccc3c21` the Activity was “Dose-dependent effect”.
